Assay results reported in US20050282887A1, “Novel sulfamate and sulfamide derivatives useful for the treatment of epilepsy and related disorders” (priority 2004, published 2005).
Values belong to the molecule of their own block, whether it stands above or below them.

Legend:
[1] = system: CF-1 male albino mice; test: Maximal Electroshock Test (MES), anticonvulsant activity; assay type: in vivo
Procedure: Anticonvulsant activity was determined using the MES test, run according to the procedure described in detail below. Swinyard E A, Woodhead J H, White H S, Franklin M R. Experimental selection, quantification, and evaluation of anticonvulsants. In Levy R H, et al., eds. Antiepileptic Drugs. 3rd ed. New York: Raven Press, 1989:85-102
CF-1 male albino mice (25-35 g) were fasted for 16 hours before testing. Mice were randomly selected into control and test groups, with the animals dosed with vehicle or test compound, at varying concentrations, respectively. On the study date, at 30 minutes prior to shock, the mice were orally dosed with vehicle (0.5% methylcellulose) or test compound (100-300 mg/kg). Seizures were induced by trans-corneal electric shock using a 60-Hz alternating current, 50 mA, delivered for 0.2 sec. The mice in the test groups were subjected to electrical stimulus at time intervals between 15 minutes and 4 hours following administration of test compound. […] The test was complete when the entire course of the convulsion has been observed (typically, less than 1 minute after electrical stimulation), and the mice were then immediately euthanized by carbon dioxide inhalation.
Abolition of the full body tonic extensor component of the seizure was taken as the endpoint of the test. […] The ED50 value of the test compound (calculated when appropriate) was the calculated dose required to block the hind limb tonic-extensor component of the MES-induced seizure in 50% of the rodents tested. A probit analysis was used to calculate the ED50 and 95% fiducial limits (FL).
Representative compounds of the present invention were tested according to the procedure described above, with results as listed in Table 4 below. Results are listed as number of mice with full body tonic extension prevented/total number of mice tested @ a given time (at a given test compound dosage level).

[2] = system: carbonic anhydrase; conditions: cited from earlier work

- melting point: 100 to 101 °C
Molecule: NS(=O)(=O)NCC1CCc2ccccc2O1 (stereo not drawn) [Compound #10, Chroman-2-ylmethylsulfamide]
- MES Activity: number of mice with full body tonic extension prevented/total number of mice tested ([1]; @ 1 h, 100 mg/kg oral): 1/5 @ 1 h (100 mg/kg)

Molecule: NS(=O)(=O)NC[C@H]1COc2ccc([N+](=O)[O-])cc2O1 [compound 18, (2S)-(−)-N-(2,3-Dihydro-7-nitro-benzo[1,4]dioxin-2-ylmethyl)-sulfamide]
- MES Activity (result in words) ([1]; @ 100 mg/kg oral): Inactive @ 100 mg/kg

Molecule: Nc1ccc2c(c1)O[C@@H](CNS(N)(=O)=O)CO2 [Compound #36, (2S)-(−)-N-(7-Amino-2,3-dihydro-benzo[1,4]dioxin-2-ylmethyl)-sulfamide]
- MES Activity (result in words) ([1]; @ 100 and 300 mg/kg oral): Inactive @ 100 and 300 mg/kg

- melting point: 76 to 78 °C
Molecule: CN(C)S(=O)(=O)NCC1COc2ccccc2O1 (racemic) [Compound #6, N-(2,3-Dihydro-benzo[1,4]dioxin-2-ylmethyl)-N′,N′ dimethylsulfamide]
- MES Activity: number of mice with full body tonic extension prevented/total number of mice tested ([1]; @ 0.5 h, 300 mg/kg oral): 4/5 @ 0.5 h (300 mg/kg)

Molecule: Cc1ccc2c(c1)O[C@@H](CNS(N)(=O)=O)CO2 [Compound #19, (2S)-(−)-N-(7-Methyl-2,3-dihydro-benzo[1,4]dioxin-2-ylmethyl)-sulfamide]
- MES Activity: number of mice with full body tonic extension prevented/total number of mice tested ([1]; @ 0.5 h, 300 mg/kg oral): 5/5 @ 0.5 h (300 mg/kg)

Molecule: NS(=O)(=O)NCC1Oc2ccccc2O1 [Compound #2, (Benzo[1,3]dioxol-2-ylmethyl)sulfamide]
- MES Activity: number of mice with full body tonic extension prevented/total number of mice tested ([1]; @ 2 h, 100 mg/kg oral): 4/4 @ 2 h (100 mg/kg)

Molecule: NS(=O)(=O)NCC1COc2ccccc2O1 (racemic) [Compound #1, N-(2,3-Dihydro-benzo[1,4]dioxin-2-ylmethyl)-sulfamide]
- MES Activity: number of mice with full body tonic extension prevented/total number of mice tested ([1]; @ 1 h, 300 mg/kg oral): 2/4 @ 1 h (300 mg/kg)

Molecule: NS(=O)(=O)NC[C@H]1COc2ccc(Cl)cc2O1 [compound 14, (2S)-(−)-N-(7-Chloro-2,3-dihydro-benzo[1,4]dioxin-2-ylmethyl)-sulfamide]
- MES Activity: number of mice with full body tonic extension prevented/total number of mice tested ([1]; @ 4 h, 100 mg/kg oral): 3/5 @ 4 h (100 mg/kg)

- melting point: 97 to 98 °C
Molecule: CN(CC1COc2ccccc2O1)S(N)(=O)=O (racemic) [Compound #7, N-(2,3-Dihydro-benzo[1,4]dioxin-2-ylmethyl)-N-methylsulfamide]
- MES Activity: number of mice with full body tonic extension prevented/total number of mice tested ([1]; @ 0.5 h, 300 mg/kg oral): 3/3 @ 0.5 h (300 mg/kg)

Molecule: NS(=O)(=O)NC[C@H]1COc2cc(Cl)ccc2O1 [Compound #8, (2S)-(−)-N-(6-Chloro-2,3-dihydro-benzo[1,4]dioxin-2-ylmethyl)-sulfamide]
- MES Activity: number of mice with full body tonic extension prevented/total number of mice tested ([1]; @ 3 h, 100 mg/kg oral): 3/5 @ 3 h (100 mg/kg)

- melting point: 87 to 90 °C
Molecule: NS(=O)(=O)OCC1CCc2ccccc2O1 (stereo not drawn) [Compound #11, Chroman-2-ylmethylsulfamate]

- melting point: 113 to 116 °C
Molecule: NS(=O)(=O)OC[C@H]1COc2cc(Cl)ccc2O1 [Compound #12, Sulfamic acid, 6-chloro-2,3-dihydro-benzo[1,4]dioxin-2-ylmethyl ester]
- MES Activity: number of mice with full body tonic extension prevented/total number of mice tested ([1]; @ 4 h, 100 mg/kg oral): 3/5 @ 4 h (100 mg/kg)

Molecule: NS(=O)(=O)NCC1COc2ccccc2OC1 [Compound #3, ((3,4-Dihydro-2H-benzo[b][1,4]dioxepin-3-yl)methyl)sulfamide]
- MES Activity: number of mice with full body tonic extension prevented/total number of mice tested ([1]; @ 1 h, 300 mg/kg oral): 2/3 @ 1 h (300 mg/kg)

- melting point: 101 to 103 °C
Molecule: NS(=O)(=O)NCCC1COc2ccccc2O1 (stereo not drawn) [Compound #16, 2-(2,3-Dihydro-benzo[1,4]dioxin-2-yl)-ethylsulfamide]
- MES Activity: number of mice with full body tonic extension prevented/total number of mice tested ([1]; @ 0.5 h, 300 mg/kg oral): 5/5 @ 0.5 h (300 mg/kg)

Molecule: NS(=O)(=O)NC[C@H]1COc2ccccc2O1 [Compound #4, (2S)-(−)-N-(2,3-Dihydro-benzo[1,4]dioxin-2-ylmethyl)-sulfamide]
- MES Activity: number of mice with full body tonic extension prevented/total number of mice tested ([1]; @ 1 h, 300 mg/kg oral): 5/5 @ 1 h (300 mg/kg)

Molecule: Sulfamic acid, 6,7 dichloro-2,3-dihydro-benzo[1,4]dioxin-2-ylmethyl ester [Compound #27]
- MES Activity: number of mice with full body tonic extension prevented/total number of mice tested ([1]; @ 4 h, 100 mg/kg oral): 5/5 @ 4 h (100 mg/kg)

Molecule: CC1(C)O[C@@H]2[C@@H](CO[C@@]3(COS(N)(=O)=O)OC(C)(C)O[C@@H]23)O1 [Topiramate]
- carbonic anhydrase inhibition [2]: single digit micromolar

- melting point: 119 to 121 °C
Molecule: NS(=O)(=O)NC[C@H]1COc2cc(Cl)c(Cl)cc2O1 [Compound #29, (2S)-(−)-N-(6,7 Dichloro-2,3-dihydro-benzo[1,4]dioxin-2-ylmethyl)-sulfamide]
- MES Activity: number of mice with full body tonic extension prevented/total number of mice tested ([1]; @ 4 h, 100 mg/kg oral): 3/5 @ 4 h (100 mg/kg)
